US20140005103A1, “SULFONAMIDE DERIVATIVES AND METHODS OF USE THEREOF FOR IMPROVING THE PHARMACOKINETICS OF A DRUG” (Merck, Sharp & Dohme Corp., priority 2012, published 2014)

Tests used:
CYP2C19 = target: T1, CYP2C19 (Homo sapiens, UniProt P33261); experiment: Cocktail CYP assay, mephenytoin 4'-hydroxylation; type: in vitro ADME; settings: human liver microsomes, 30 μM mephenytoin; test concentrations up to 10 μM
T1 construct: 0.1 mg/mL protein human liver microsomes (BD Gentest); tissue BD Gentest; host or cells: human liver microsomes
T1 sequence (P33261 whole entry): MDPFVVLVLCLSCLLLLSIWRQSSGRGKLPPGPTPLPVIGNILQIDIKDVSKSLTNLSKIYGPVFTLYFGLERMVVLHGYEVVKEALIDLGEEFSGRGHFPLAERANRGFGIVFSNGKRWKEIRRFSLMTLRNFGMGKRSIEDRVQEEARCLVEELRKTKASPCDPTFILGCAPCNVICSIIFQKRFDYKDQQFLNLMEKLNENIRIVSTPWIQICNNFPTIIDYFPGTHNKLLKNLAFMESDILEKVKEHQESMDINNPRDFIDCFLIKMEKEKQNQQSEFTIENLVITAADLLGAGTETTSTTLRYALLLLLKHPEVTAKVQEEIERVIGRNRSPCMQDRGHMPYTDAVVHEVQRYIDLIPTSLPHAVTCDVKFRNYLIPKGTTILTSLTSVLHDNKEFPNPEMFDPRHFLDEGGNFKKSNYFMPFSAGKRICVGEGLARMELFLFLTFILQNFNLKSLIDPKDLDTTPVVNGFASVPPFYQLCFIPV
Method: (§1) Determination of IC50 in a Cocktail Assay for CYPs 1A2, 2C9, 2C19, 2D6 and 3A4
(§2) This assay was performed in a standard 96-well plate design. IC50 values were calculated from the percent inhibition observed for each test compound at 6 concentrations (for example, 0.0032, 0.016, 0.08, 0.4, 2 and 10 μM). The incubation substrate mix contains 10 μM phenacetin (1A2), 5 μM diclofenac (2C9), 30 μM mephenyloin (2C19), 5 μM dextromethorphan (2D6) and 2 μM midazolam (3A4), 0.1 mg/mL protein human liver microsomes (BD Gentest), 1 mM NAPDH, 3.3 mM MgCl2 and 100 mM potassium phosphate buffer (pH 7.4). The production of the metabolite of each probe substrate was determined after incubation for 10 min at 37° C. Quantitation of the metabolite peak area ratio against an internal standard (tolbutamide) was determined by LC/MS/MS analysis following acetonitrile treatment of the incubations.
(§3) Samples were analyzed in the MRM mode with a SCIEX API-4000 mass spectrometer (Applied Biosystems, Foster City, Calif.), with a Shimadzu LC-20 AD pump (Shimadzu corporation, Kyoto, JP) and a CTC PAL autosampler (Agilent Technologies, Switzerland). A Phenomenex, Luna, […], 100 A, 2.00×30 mm HPLC column was used for the separation. The mobile phases were: (A) 0.1% formic acid in water and (B) 0.1% formic acid in acetonitrile. The binary gradient was as follows.
(§4) The peak area ratio of the analyte to the internal standard was used to quantify the metabolite. The values of peak area ratios in the presence of test compound were compared to those of maximum or minimum controls and were expressed as % inhibition by interpolating between the maximum and minimum peak area ratios. Incubations with no inhibitor were defined as the maxima.
(§5) The following equation was used to calculate the % inhibition:
(§6) [1−[(X−Low control)/(High control−Low control)]]*100
(§7) For the IC50 calculation, SigmaPlot was used to plot the mean % inhibition versus the test compound concentrations and for non-linear regression analysis of the data. Depending on the range of data points defining the inhibition curve, the data may have been fit to the 4-parameter logistic equation.

CYP2C9 = target: T2, CYP2C9 (Homo sapiens, UniProt P11712); experiment: Cocktail CYP assay, diclofenac 4'-hydroxylation; type: in vitro ADME; settings: human liver microsomes, 5 μM diclofenac; test concentrations up to 10 μM
T2 construct: 0.1 mg/mL protein human liver microsomes (BD Gentest); tissue BD Gentest; host or cells: human liver microsomes
T2 sequence (P11712 whole entry): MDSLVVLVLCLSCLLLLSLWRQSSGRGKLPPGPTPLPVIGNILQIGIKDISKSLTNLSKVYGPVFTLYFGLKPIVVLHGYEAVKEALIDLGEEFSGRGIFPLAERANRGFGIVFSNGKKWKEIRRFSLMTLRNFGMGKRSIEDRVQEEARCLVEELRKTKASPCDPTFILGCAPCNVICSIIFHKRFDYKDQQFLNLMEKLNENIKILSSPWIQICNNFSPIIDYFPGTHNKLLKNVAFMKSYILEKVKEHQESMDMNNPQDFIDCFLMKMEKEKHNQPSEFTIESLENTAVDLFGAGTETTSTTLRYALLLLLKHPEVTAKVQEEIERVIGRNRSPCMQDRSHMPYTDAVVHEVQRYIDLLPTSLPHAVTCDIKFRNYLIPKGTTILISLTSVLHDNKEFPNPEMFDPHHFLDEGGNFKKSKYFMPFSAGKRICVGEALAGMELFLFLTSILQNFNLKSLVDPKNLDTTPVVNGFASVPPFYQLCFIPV
Method: as §1, §2, §3, §4, §5, §6, §7

human CYP11B2 = target: T3, human CYP11B2 (Homo sapiens, UniProt P19099); experiment: IC50 vs CYP11B2 by aldosterone synthesis in V79 cells; type: cell-based; settings: V79 cells expressing human CYP11B2, 750 nM DOC, aldosterone HTRF; test concentrations 0.5-10000 nM
T3 construct: expressed in transfected cells
T3 sequence (P19099 25-503): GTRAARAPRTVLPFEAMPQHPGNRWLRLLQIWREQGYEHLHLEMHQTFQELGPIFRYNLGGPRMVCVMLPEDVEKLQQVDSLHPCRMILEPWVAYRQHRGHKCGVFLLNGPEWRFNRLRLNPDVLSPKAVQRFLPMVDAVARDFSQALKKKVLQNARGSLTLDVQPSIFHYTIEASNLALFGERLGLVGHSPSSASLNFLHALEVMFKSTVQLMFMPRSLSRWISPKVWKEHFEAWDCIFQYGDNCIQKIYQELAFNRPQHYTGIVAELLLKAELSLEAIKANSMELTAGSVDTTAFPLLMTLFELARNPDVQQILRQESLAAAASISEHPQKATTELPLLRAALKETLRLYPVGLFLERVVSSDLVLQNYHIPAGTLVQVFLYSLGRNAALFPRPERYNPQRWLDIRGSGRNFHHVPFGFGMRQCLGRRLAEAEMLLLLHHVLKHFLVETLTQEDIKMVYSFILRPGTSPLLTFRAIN
Method: Determination of IC50 vs CYP11B1/CYP11B2 by Measurement of Cortisol/Aldosterone Synthesis
This assay was performed in a standard 384-well plate design using cultured V79 cells stably expressing human CYP11B1 or human CYP11B2. Test compounds at 10 concentrations (for example, 10000, 3333.3, 1111.1, 370.4, 123.5, 41.2, 13.7, 4.6, 1.5 and 0.5 nM) were added in 384-well plate after the cell-seeding procedure. The incubation substrate contains 1500 nM RSS for CYP11B1 assay/750 nM DOC for CYP11B2 assay. The
Cortisol/Aldosterone production of cell culture supernatant was determined by Cortisol/Aldosterone HTRF kit after for about 15 hours incubation at RT (protect from light). IC50 values were calculated from the percent inhibition observed for each test compound at 10 concentrations.
The assay plate was read using Envision (Perkin Elmer, Waltham, Mass.) at 665 nm and 590 nm (using Filter Barcode of 217#, 205#; Mirror Barcode of 446#).
Data are analyzed using Assay Data Analyzer. All ratio data (665 nm/590 nm) are back calculated according to the standard curve, resulting in Cortisol/Aldosterone concentrations. IC50 values are reported as the Inflection Point (IP) of a four parameter fit of the titration data.
as §5
% Activity=100×{1−(Sample_back calculated Cortisol/Aldosterone concentration−LC_back calculated Cortisol/Aldosterone concentration)/(HC_back calculated Cortisol/Aldosterone concentration−LC_back calculated Cortisol/Aldosterone concentration)}

CYP2D6 = target: T4, CYP2D6 (Homo sapiens, UniProt P10635); experiment: Cocktail CYP assay, dextromethorphan O-demethylation; type: in vitro ADME; settings: human liver microsomes, 5 μM dextromethorphan; test concentrations up to 10 μM
T4 construct: 0.1 mg/mL protein human liver microsomes (BD Gentest); tissue BD Gentest; host or cells: human liver microsomes
T4 sequence (P10635 whole entry): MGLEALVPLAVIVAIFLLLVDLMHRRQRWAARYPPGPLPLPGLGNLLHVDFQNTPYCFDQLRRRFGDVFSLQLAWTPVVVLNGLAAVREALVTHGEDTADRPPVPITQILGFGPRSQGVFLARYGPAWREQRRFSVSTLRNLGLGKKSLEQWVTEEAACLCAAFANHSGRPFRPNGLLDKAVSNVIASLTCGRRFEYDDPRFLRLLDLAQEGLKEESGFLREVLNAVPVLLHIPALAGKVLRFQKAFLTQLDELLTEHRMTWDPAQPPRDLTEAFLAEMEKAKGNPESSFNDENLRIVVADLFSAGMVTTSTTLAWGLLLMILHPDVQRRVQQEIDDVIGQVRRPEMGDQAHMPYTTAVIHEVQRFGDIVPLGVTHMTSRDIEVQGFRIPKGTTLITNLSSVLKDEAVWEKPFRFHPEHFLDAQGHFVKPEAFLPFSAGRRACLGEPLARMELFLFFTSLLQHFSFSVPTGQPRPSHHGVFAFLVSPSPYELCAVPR
Method: as §1, §2, §3, §4, §5, §6, §7

CYP1A2 = target: T5, CYP1A2 (Homo sapiens, UniProt P05177); experiment: Cocktail CYP assay, phenacetin O-deethylation; type: in vitro ADME; settings: human liver microsomes, 10 μM phenacetin; test concentrations up to 10 μM
T5 construct: 0.1 mg/mL protein human liver microsomes (BD Gentest); tissue BD Gentest; host or cells: human liver microsomes
T5 sequence (P05177 1-516): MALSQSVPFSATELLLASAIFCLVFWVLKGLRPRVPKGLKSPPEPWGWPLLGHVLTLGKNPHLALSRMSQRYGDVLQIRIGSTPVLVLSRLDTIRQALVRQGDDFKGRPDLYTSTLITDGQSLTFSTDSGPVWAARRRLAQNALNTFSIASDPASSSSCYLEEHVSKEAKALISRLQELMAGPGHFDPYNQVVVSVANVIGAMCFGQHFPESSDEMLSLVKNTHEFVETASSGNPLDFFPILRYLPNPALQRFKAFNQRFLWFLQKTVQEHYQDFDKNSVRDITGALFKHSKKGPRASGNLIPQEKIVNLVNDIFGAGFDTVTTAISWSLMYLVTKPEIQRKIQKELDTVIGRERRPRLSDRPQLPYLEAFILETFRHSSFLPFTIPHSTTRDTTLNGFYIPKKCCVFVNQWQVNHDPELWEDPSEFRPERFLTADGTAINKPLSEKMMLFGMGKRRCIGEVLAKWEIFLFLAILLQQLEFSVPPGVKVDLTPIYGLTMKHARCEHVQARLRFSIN
Method: as §1, §2, §3, §4, §5, §6, §7

SMILES	IC50 (CYP2C19) [µM]	IC50 (CYP2C9) [µM]	IC50 (human CYP11B2) [µM]	IC50 (CYP2D6) [µM]	IC50 (CYP1A2) [µM]
C[C@H](c1ccc(F)cc1)n1cncc1CN1CCN(S(=O)(=O)c2cnc(N3CCN4C[C@@H](CN)C[C@H]4C3)s2)CC1 [Compound 10]	> 10	2.68	> 10	> 10	> 10
C[C@H](c1ccc(F)cc1)n1cncc1CN1CCN(S(=O)(=O)c2cnc(N3CC(=O)N4C[C@H](O)C[C@H]4C3)s2)CC1 [Compound 16]	8.04	9.12	4.6	> 10	1.49
C[C@H](c1ccc(F)cc1)n1cncc1CN1CCN(S(=O)(=O)c2cnc(N3CCN4C[C@H](O)CC[C@H]4C3)s2)CC1 [Compound 19]	7.95	1.41	1.93	7.01	> 10
C[C@H](c1ccc(F)cc1)n1cncc1CN1CCN(S(=O)(=O)c2cnc(N3CCN(C4CCN(C)CC4)CC3)s2)CC1 [Compound 9]	> 10	4.12	3.92	> 10	> 10
CN1CCN(c2ncc(S(=O)(=O)N3CCN(Cc4cncn4CCOc4ccc(F)cn4)CC3)s2)CC1 [Compound 33]	7.51	> 10	1.61	4.8	> 10
C[C@H](c1ccc(F)cc1)n1cncc1CN1CCN(S(=O)(=O)c2cnc(N3C[C@@H]4C[C@@H](O)CN4C[C@@H]3C)s2)CC1 [Compound 21]	≥ 10	1.16	> 10	6.18	> 10
C[C@H](c1ccc(F)cc1)n1cncc1CN1CCN(S(=O)(=O)c2cnc(N3CCN(C)CC3)s2)CC1 [Compound 2]	1.83	3.22	0.077	8.01	> 10
C[C@H](c1ccc(F)cc1)n1cncc1CN1CCN(S(=O)(=O)c2cnc(N3CCN4C[C@H](O)C[C@H]4C3)s2)CC1 [Compound 5]	3.85	4.46	4.77	> 10	> 10
C[C@H](c1ccc(F)cc1)n1cncc1CN1CCN(S(=O)(=O)c2cnc(N3CCN4C[C@H](O)C[C@@H]4C3)s2)CC1 [Compound 6]	> 10	1.94	3.88	> 10	> 10
C[C@H](c1ccc(F)cc1)n1cncc1C1C(=O)OCC2CN(S(=O)(=O)c3cnc(Nc4ccc(C(F)(F)F)cn4)s3)CCN21 (stereo partly drawn) [Compound 39]	2.65	4.7	2.47	2.18	3.73
C[C@H](c1ccc(F)cc1)n1cncc1CN1CCN(S(=O)(=O)c2cnc(N3CCN4C[C@H](O)C[C@H]4C3=O)s2)CC1 [Compound 18]	2.16	2.3	4.58	5	> 10
C[C@H](c1ccc(F)cc1)n1cncc1CN1CCN(S(=O)(=O)c2cnc(N3CCN4C[C@H](O)CC4(C)C3)s2)CC1 (stereo partly drawn) [Compound 24]	> 10	1.35	> 10	3.2	> 10
C[C@H](c1ccc(F)cc1)n1cncc1CN1CCN(S(=O)(=O)c2cnc(N3CCNCC3)cn2)CC1 [Compound 30]	> 10	> 10	2.9	4.92	> 10
C[C@H](c1ccc(F)cc1)n1cncc1CN1CCN(S(=O)(=O)c2ccc(N3CCNCC3)cn2)CC1 [Compound 28]	3.68	6.61	4.64	6.5	> 10
C[C@H](c1ccc(C#N)cc1)n1cncc1CN1CCN(S(=O)(=O)c2cnc(Nc3ccc(C(F)(F)F)cn3)s2)CC1 [Compound 4]	0.721	1.84	0.445	5.25	> 10
C[C@H](c1ccc(F)cc1)n1cncc1CN1CCN(S(=O)(=O)c2cnc(N3CC[C@@H](N4CCOCC4)[C@H](F)C3)s2)CC1 [Compound 20]	4.11	4.5	2.24	> 10	2.77
CC(c1cncn1[C@H](C)c1ccc(F)cc1)N1CCN(S(=O)(=O)c2cnc(N3CCN4C[C@H](O)C[C@H]4C3)s2)CC1 (stereo partly drawn) [Compound 37]	> 10	6.1	0.193	> 10	5.81
C[C@H](c1ccc(F)cc1)n1cncc1CN1CCN(S(=O)(=O)c2cnc(N3CCNCC3)s2)CC1 [Compound 1]	2.53	2.3	1.72	2.78	> 10
C[C@H](c1ccc(F)cc1)n1cncc1CN1CCN(S(=O)(=O)c2cnc(N3CCC(N)(CO)CC3)s2)CC1 [Compound 25]	> 10	9.73	> 10	8.35	> 10
C[C@H](c1ccc(F)cc1)n1cncc1CN1CCN(S(=O)(=O)c2cnc(N3CC[C@@H](N)[C@H](F)C3)s2)CC1 [Compound 11]	8.02	2.15	3.39	> 10	> 10
CC1CN(c2ncc(S(=O)(=O)N3CCN(Cc4cncn4[C@H](C)c4ccc(F)cc4)CC3)s2)C[C@@H]2C[C@@H](O)CN12 (stereo partly drawn) [Compound 23]	> 10	5.01	4.57	4.65	> 10
